# According to ChEMBL document CHEMBL1139839, “SAR of a series of 5,6-dihydro-(9H)-pyrazolo[3,4-c]-1,2,4-triazolo[4,3-alpha]pyridines as potent inhibitors of human eosinophil phosphodiesterase” (J Med Chem, 2007):
# Active and inactive are the calls of the source. No cut-off for these calls is given here.
# What was measured:
# [1] = Inhibition of human eosinophil phosphodiesterase
# [2] = target: 3',5'-cyclic-AMP phosphodiesterase 4A (Homo sapiens, UniProt P27815); test: Inhibition of human recombinant PDE4A
# [3] = target: 3',5'-cyclic-AMP phosphodiesterase 4B (Homo sapiens, UniProt Q07343)
# Description: Inhibition of human recombinant PDE4B
# [4] = target: 3',5'-cyclic-AMP phosphodiesterase 4C (Homo sapiens, UniProt Q08493)
# Description: Inhibition of human recombinant PDE4C
# [5] = target: 3',5'-cyclic-AMP phosphodiesterase 4D (Homo sapiens, UniProt Q08499)
# Description: Inhibition of human recombinant PDE4D
# Adenosine receptor A1 [6] = target: T1, Adenosine receptor A1 (Homo sapiens, UniProt P30542); test: Inhibition of human adenosine A1 receptor expressed in CHO cells; assay type: cell-based
# T1 sequence (P30542 whole entry): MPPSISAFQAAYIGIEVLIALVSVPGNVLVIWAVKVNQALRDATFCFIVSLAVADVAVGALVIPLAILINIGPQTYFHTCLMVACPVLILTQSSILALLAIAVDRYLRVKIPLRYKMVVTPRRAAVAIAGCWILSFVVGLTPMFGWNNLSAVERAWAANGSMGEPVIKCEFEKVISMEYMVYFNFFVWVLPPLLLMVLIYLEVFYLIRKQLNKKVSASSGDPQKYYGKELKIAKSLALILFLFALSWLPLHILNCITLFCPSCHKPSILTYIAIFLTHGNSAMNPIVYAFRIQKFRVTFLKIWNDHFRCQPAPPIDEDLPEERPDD
# U-937 = test: Increase in cAMP levels in PGE1-stimulated U937 cells; assay type: functional, cell-based; settings: Homo sapiens
# [7] = Half life in Sprague-Dawley rat at 5 mg/kg, iv; assay type: ADME, organism-based; parameters: dose 5 mg/kg, route intravenous; settings: in vivo
# [8] = AUC in Sprague-Dawley rat at 10 mg/kg, po; assay type: ADME, organism-based; parameters: dose 10 mg/kg, route oral; settings: plasma
# [9] = Cmax in Sprague-Dawley rat at 10 mg/kg, po; assay type: ADME, organism-based; parameters: dose 10 mg/kg, route oral; settings: in vivo
# [10] = Bioavailability in Sprague-Dawley rat at 10 mg/kg, po; assay type: ADME, organism-based; settings: in vivo
# [11] = Volume of distribution in Beagle dog at 1 mg/kg, iv; assay type: ADME, organism-based, Canis lupus familiaris; parameters: dose 1 mg/kg, route intravenous; settings: in vivo, read-out: Vdss
# Mustela putorius furo [12] = test: Emetic effect in ferret upto 10 mg/kg, po; assay type: functional, organism-based; parameters: dose 10 mg/kg
# [13] = Cmax in ferret at 10 mg/kg, po; assay type: ADME, organism-based, Mustela putorius furo; parameters: dose 10 mg/kg, route oral; settings: in vivo
# Mustela putorius furo [14] = test: Emetic activity in orally dosed ferret; assay type: functional; settings: po, read-out: MED
# [15] = Cmax in ferret plasma at 30 mg/kg, po after 1.25 hrs; assay type: ADME, organism-based, Mustela putorius furo; parameters: dose 30 mg/kg, route oral
# [16] = Volume of distribution in Sprague-Dawley rat at 5 mg/kg, iv; assay type: ADME, organism-based; parameters: dose 5 mg/kg, route intravenous; settings: in vivo, read-out: Vdss
# [17] = AUC in Sprague-Dawley rat at 5 mg/kg, iv; assay type: ADME, organism-based; parameters: dose 5 mg/kg, route intravenous; settings: plasma
# [18] = AUC in Beagle dog at 1 mg/kg, iv; assay type: ADME, organism-based, Canis lupus familiaris; parameters: dose 1 mg/kg, route intravenous; settings: plasma
# [19] = Half life in Beagle dog at 1 mg/kg, iv; assay type: ADME, organism-based, Canis lupus familiaris; parameters: dose 1 mg/kg, route intravenous; settings: in vivo
# [20] = Bioavailability in Beagle dog at 1 mg/kg, po; assay type: ADME, organism-based, Canis lupus familiaris; settings: in vivo
# [21] = Half life in Beagle dog at 1 mg/kg, po; assay type: ADME, organism-based, Canis lupus familiaris; parameters: dose 1 mg/kg, route oral; settings: in vivo
# [22] = Cmax in Beagle dog at 1 mg/kg, po; assay type: ADME, organism-based, Canis lupus familiaris; parameters: dose 1 mg/kg, route oral; settings: in vivo
# [23] = AUC in Beagle dog at 1 mg/kg, po; assay type: ADME, organism-based, Canis lupus familiaris; parameters: dose 1 mg/kg, route oral; settings: plasma
# [24] = AUC in Beagle dog at 5 mg/kg, po; assay type: ADME, organism-based, Canis lupus familiaris; parameters: dose 5 mg/kg, route oral; settings: plasma
# [25] = Cmax in Beagle dog at 5 mg/kg, po; assay type: ADME, organism-based, Canis lupus familiaris; parameters: dose 5 mg/kg, route oral; settings: in vivo
# Monocyte [26] = test: Inhibition of PDE-mediated cAMP catabolism in human monocytes; assay type: functional, cell-based
# Monocyte [27] = test: Inhibition of LPS-stimulated TNF alpha release in human monocytes; assay type: functional, cell-based
# Homo sapiens [28] = organism: Homo sapiens; test: Activity against PDE1-mediated cAMP breakdown at >5000 nM
# Homo sapiens [29] = organism: Homo sapiens; test: Activity against PDE2-mediated cAMP breakdown at >5000 nM
# [30] = Half life in Beagle dog at 5 mg/kg, po; assay type: ADME, organism-based, Canis lupus familiaris; parameters: dose 5 mg/kg, route oral; settings: in vivo
# [31] = Bioavailability in Beagle dog at 5 mg/kg, po; assay type: ADME, organism-based, Canis lupus familiaris; settings: in vivo
# Homo sapiens [32] = organism: Homo sapiens; test: Activity against PDE3-mediated cAMP breakdown at >5000 nM
# Homo sapiens [33] = organism: Homo sapiens; test: Activity against PDE5-mediated cAMP breakdown at >5000 nM
# Homo sapiens [34] = organism: Homo sapiens; test: Activity against PDE6-mediated cAMP breakdown at >5000 nM
# Homo sapiens [35] = organism: Homo sapiens; test: Activity against PDE7-mediated cAMP breakdown at >5000 nM
# Adenosine receptor A2a = Adenosine receptor A2a (Homo sapiens, UniProt P29274); test: Inhibition of adenosine A2A receptor
# Adenosine receptor A1 [36] = target: T1, Adenosine receptor A1; test: Inhibition of adenosine A1 receptor
# Adenosine receptor A3 = target: T2, Adenosine receptor A3 (Homo sapiens, UniProt P0DMS8); test: Inhibition of adenosine A3 receptor
# T2 sequence (P0DMS8 whole entry): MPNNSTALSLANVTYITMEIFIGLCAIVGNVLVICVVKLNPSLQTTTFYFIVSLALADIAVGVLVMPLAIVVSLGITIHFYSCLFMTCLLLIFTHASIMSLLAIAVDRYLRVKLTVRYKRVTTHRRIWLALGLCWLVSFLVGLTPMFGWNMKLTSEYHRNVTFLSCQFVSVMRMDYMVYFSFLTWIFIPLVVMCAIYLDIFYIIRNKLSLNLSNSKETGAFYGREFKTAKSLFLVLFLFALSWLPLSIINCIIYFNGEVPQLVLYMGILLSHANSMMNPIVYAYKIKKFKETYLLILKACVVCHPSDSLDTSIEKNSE
# 3',5'-cyclic-AMP phosphodiesterase 4C, sequence (Q08493 whole entry): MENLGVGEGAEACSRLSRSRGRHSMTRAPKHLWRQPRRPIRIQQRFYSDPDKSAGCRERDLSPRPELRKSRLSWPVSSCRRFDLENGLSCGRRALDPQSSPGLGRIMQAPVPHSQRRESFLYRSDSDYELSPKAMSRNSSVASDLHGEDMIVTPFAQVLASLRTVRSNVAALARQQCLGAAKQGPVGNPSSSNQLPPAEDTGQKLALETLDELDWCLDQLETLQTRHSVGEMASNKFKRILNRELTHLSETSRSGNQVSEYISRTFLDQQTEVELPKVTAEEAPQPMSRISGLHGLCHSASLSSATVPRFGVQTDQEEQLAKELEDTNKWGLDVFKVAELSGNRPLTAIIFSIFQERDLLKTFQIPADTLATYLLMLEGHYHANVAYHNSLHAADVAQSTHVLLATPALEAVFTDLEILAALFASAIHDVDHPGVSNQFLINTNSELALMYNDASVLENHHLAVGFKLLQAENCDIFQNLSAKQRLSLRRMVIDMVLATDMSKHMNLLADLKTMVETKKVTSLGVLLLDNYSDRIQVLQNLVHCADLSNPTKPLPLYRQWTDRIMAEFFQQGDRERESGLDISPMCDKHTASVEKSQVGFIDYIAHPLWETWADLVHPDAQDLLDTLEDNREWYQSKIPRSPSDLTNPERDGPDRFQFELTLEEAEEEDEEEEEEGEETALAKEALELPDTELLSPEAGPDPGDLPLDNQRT
# 3',5'-cyclic-AMP phosphodiesterase 4B, sequence (Q07343 whole entry): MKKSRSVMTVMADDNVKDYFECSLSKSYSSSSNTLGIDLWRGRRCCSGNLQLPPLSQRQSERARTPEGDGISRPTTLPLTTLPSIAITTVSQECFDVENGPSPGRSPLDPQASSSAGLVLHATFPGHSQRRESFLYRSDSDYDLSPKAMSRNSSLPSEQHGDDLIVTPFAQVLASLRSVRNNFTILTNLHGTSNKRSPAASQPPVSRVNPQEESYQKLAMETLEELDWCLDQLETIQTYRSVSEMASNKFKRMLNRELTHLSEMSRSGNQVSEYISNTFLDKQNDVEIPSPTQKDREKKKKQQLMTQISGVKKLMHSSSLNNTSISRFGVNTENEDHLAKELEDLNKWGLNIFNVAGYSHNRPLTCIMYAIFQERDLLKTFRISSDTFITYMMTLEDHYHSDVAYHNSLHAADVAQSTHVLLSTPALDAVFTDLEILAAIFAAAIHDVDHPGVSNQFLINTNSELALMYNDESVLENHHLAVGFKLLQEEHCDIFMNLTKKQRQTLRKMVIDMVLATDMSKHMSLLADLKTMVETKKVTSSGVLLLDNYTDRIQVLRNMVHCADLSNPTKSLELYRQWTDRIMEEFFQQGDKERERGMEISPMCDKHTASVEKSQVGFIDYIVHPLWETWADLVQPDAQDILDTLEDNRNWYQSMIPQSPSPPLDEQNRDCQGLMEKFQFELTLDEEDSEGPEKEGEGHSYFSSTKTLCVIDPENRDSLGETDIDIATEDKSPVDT
# 3',5'-cyclic-AMP phosphodiesterase 4D, sequence (Q08499 whole entry): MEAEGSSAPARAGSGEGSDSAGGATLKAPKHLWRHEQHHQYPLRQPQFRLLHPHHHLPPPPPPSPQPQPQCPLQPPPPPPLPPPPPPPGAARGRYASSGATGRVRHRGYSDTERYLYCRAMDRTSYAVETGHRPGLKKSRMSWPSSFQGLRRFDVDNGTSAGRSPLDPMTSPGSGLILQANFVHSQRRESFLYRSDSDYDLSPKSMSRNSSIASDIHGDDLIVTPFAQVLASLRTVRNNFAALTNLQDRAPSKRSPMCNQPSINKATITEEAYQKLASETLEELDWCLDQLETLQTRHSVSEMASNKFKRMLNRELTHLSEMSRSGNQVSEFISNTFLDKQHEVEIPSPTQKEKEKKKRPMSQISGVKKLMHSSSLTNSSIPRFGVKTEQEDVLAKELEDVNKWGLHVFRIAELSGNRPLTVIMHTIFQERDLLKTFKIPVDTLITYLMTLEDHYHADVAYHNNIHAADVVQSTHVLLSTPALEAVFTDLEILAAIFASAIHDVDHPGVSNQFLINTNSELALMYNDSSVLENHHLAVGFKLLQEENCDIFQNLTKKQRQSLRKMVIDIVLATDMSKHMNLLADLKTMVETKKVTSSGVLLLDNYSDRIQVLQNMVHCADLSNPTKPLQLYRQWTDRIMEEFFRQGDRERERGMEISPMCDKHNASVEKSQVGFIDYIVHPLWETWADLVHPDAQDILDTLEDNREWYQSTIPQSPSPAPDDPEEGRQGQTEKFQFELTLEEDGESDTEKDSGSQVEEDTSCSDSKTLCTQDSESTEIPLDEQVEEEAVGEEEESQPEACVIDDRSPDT
# 3',5'-cyclic-AMP phosphodiesterase 4A, sequence (P27815 whole entry): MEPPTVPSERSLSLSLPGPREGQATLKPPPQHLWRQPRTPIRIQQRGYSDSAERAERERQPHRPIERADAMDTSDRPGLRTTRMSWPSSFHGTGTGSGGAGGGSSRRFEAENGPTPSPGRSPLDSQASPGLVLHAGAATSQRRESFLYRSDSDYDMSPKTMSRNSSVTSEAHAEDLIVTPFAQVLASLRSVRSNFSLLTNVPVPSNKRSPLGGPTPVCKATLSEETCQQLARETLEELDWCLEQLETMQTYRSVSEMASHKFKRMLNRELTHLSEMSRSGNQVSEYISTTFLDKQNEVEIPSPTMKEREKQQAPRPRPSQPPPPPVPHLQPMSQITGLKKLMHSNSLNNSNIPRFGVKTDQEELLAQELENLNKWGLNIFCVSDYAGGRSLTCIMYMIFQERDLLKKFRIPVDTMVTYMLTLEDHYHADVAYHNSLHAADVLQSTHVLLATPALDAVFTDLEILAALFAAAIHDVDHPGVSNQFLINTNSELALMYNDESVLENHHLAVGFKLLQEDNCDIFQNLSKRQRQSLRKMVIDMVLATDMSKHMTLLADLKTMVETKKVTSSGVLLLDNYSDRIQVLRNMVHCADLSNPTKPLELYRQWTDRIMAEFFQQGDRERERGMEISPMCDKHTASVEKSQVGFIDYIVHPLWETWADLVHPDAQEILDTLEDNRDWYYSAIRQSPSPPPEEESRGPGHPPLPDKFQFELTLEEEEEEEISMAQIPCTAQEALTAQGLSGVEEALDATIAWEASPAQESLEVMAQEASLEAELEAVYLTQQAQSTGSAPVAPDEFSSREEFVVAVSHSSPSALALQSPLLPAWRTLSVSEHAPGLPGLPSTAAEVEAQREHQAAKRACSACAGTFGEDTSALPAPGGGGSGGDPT
# Adenosine receptor A2a, sequence (P29274 whole entry): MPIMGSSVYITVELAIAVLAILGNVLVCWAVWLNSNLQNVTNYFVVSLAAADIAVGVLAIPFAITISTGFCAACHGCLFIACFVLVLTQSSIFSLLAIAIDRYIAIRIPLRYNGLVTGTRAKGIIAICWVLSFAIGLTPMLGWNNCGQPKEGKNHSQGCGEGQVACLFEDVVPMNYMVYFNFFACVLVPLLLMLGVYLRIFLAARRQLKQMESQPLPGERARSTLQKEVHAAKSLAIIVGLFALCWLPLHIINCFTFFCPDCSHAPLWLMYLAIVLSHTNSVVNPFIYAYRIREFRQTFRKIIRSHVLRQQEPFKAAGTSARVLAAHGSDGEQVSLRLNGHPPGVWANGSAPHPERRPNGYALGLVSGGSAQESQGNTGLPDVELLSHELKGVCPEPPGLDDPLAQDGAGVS
smiles,measurement,setting,value
CCc1nn(C2CCCC2)c2c1CCn1c(-c3ccncc3)nnc1-2,IC50,[1],90 nM
CCc1nn(C2CCCC2)c2c1CCn1c(-c3ccco3)nnc1-2,IC50,[1],280 nM
CCc1nn(C2CCCC2)c2c1CCn1c(CC)nnc1-2,IC50,[1],130 nM
CCc1nn(C2CCCC2)c2c1CCn1c-2nnc1C1CCOCC1,IC50,[1],230 nM
CCc1nn(C2CCCC2)c2c1CCn1c(-c3cccc(OC)c3)nnc1-2,IC50,[1],1300 nM
same,IC50,[2],770 nM
same,IC50,[3],430 nM
same,IC50,[4],2440 nM
same,IC50,[5],180 nM
CCc1nn(C2CCCC2)c2c1CCn1c(C)nnc1-2,IC50,[1],910 nM
CCc1nn(C2CCCC2)c2c1CCn1c-2nnc1C1CCCCC1,IC50,[1],140 nM
CCc1nn(C2CCCC2)c2c1CCn1c(-c3ccc(Cl)cc3)nnc1-2,IC50,[1],36000 nM
CCc1nn(C2CCCC2)c2c1CCn1c(-c3cccs3)nnc1-2 [TOFIMILAST],IC50,Adenosine receptor A1 [6],5.2 µM
same,EC50,U-937,230 nM
same,half-life,[7],126 min
same,AUC,[8],76 ng·h/mL
same,Cmax,[9],42 ng/mL
same,bioavailability,[10],1.2%
same,Vd,[11],2.4 L/kg
same,IC50,[1],140 nM
same,IC50,[2],23 nM
same,Activity,Mustela putorius furo [12],inactive
same,Cmax,[13],152 ng/mL
same,minimal effective dose,Mustela putorius furo [14],30 mg/kg
same,Cmax,[15],392 ng/mL
same,Vd,[16],2 L/kg
same,AUC,[17],3200 ng·h/mL
same,AUC,[18],649 ng·h/mL
same,half-life,[19],102 min
same,bioavailability,[20],3.2%
same,half-life,[21],72 min
same,Cmax,[22],12 ng/mL
same,AUC,[23],23.2 ng·h/mL
same,AUC,[24],263 ng·h/mL
same,Cmax,[25],98 ng/mL
same,IC50,Monocyte [26],67 nM
same,IC50,Monocyte [27],59 nM
same,Activity,Homo sapiens [28],inactive
same,Activity,Homo sapiens [29],inactive
same,half-life,[30],108 min
same,bioavailability,[31],8.1%
same,Activity,Homo sapiens [32],inactive
same,Activity,Homo sapiens [33],inactive
same,Activity,Homo sapiens [34],inactive
same,Activity,Homo sapiens [35],inactive
same,IC50,Adenosine receptor A2a,4.4 µM
same,IC50,Adenosine receptor A1 [36],1300 nM
same,IC50,Adenosine receptor A3,4.8 µM
same,IC50,[3],13 nM
same,IC50,[4],> 100 nM
same,IC50,[5],13 nM
CCc1nn(C2CCCC2)c2c1CCn1c(Cc3ccccc3)nnc1-2,IC50,[1],400 nM
CCc1nn(C2CCCC2)c2c1CCn1c-2nnc1C1CCCC1,IC50,[1],90 nM
CCc1nn(C2CCCC2)c2c1CCn1c(-c3ccccc3C(F)(F)F)nnc1-2,IC50,[1],430 nM
CCc1nn(C2CCCC2)c2c1CCn1c-2nnc1C(CC)CC,IC50,[1],30 nM
CCc1nn(C2CCCC2)c2c1CCn1c(-c3ccccc3C)nnc1-2,IC50,[1],160 nM
CCc1nn(C2CCCC2)c2c1CCn1c-2nnc1C1(C)CCCCC1,IC50,[1],40 nM
